Data from patent US5674879A, “Compositions including and methods of using conformationally restricted angiotensin II antagonist” (G.D. Searle & Co., priority 1995, dated 1997).
Like-named read-outs stand apart in the source and are kept apart here.

Assays:
[1] = tested on: angiotensin II; conditions: binding experiments, functional assays and in vivo tests; cited from earlier work
[2] = molecular target: smooth muscle angiotensin II receptor; assay: Assay A: Angiotensin II Binding Activity (displacement of 125I-angiotensin II, rat uterine membrane preparation); conditions: 50% displacement of specifically bound 125I-AII, rat uterine membranes, 25° C., 60 min, pH 7.5
Description: Assay A: Angiotensin II Binding Activity
Compounds of the invention were tested for ability to bind to the smooth muscle angiotensin II receptor using a rat uterine membrane preparation. Angiotensin II (AII) was purchased from Peninsula Labs. ^125 I-angiotensin II (specific activity of 2200 Ci/mmol) was purchased from Du Pont-New England Nuclear. Other chemicals were obtained from Sigma Chemical Co. This assay was carried out according to the method of Douglas et al [Endocrinology, 106, 120-124 (1980)]. Rat uterine membranes were prepared from fresh tissue. All procedures were carried out at 4° C. Uteri were stripped of fat and homogenized in phosphate-buffered saline at pH 7.4 containing 5 mM EDTA. The homogenate was centrifuged at 1500×g for 20 min., and the supernatant was recentrifuged at 100,000×g for 60 min. The pellet was resuspended in buffer consisting of 2 mM EDTA and 50 mM Tris-HCl (pH 7.5) to a final protein concentration of 4 mg/ml. Assay tubes were charged with 0.25 ml of a solution containing 5 mM MgCl2, 2 mM EDTA, 0.5% bovine serum albumin, 50 mM Tris-HCl, pH 7.5 and ^125 I-AII (approximately 10^5 cpm) in the absence or in the presence of unlabelled ligand. The reaction was initiated by the addition of membrane protein and the mixture was incubated at 25° C. for 60 min. The incubation was terminated with ice-cold 50 mM Tris-HCl (pH 7.5) and the mixture was filtered to separate membrane-bound labeled peptide from the free ligand. The incubation tube and filter were washed with ice-cold buffer. Filters were assayed for radioactivity in a Micromedic gamma counter. Nonspecific binding was defined as binding in the presence of 10 μM of unlabelled AII. Specific binding was calculated as total binding minus nonspecific binding. The receptor binding affinity of an AII antagonist compound was indicated by the concentration (IC50) of the tested AII antagonist which gives 50% displacement of the total specifically bound ^125 I-AII from the high affinity AII receptor. Binding data were analyzed by a nonlinear least-squares curve fitting program.

[3] = molecular target: T1, rabbit aortic rings (angiotensin II contraction) (Oryctolagus cuniculus, UniProt P34976); assay: Assay B: In Vitro Vascular Smooth Muscle Response for AII (rabbit aortic rings); format: cell-based, rabbit (male New Zealand white); conditions: rabbit aorta rings, antagonist 10^-5 M for 5 min, 37° C., read-out: Assay B pA2 (converted)
T1 construct: The thoracic aorta was removed, cleaned of adherent fat and connective tissue and then cut into 3-mm ring segments; from tissue; host or cells: rabbit thoracic aorta rings, endothelium removed
T1 sequence (P34976 1-359): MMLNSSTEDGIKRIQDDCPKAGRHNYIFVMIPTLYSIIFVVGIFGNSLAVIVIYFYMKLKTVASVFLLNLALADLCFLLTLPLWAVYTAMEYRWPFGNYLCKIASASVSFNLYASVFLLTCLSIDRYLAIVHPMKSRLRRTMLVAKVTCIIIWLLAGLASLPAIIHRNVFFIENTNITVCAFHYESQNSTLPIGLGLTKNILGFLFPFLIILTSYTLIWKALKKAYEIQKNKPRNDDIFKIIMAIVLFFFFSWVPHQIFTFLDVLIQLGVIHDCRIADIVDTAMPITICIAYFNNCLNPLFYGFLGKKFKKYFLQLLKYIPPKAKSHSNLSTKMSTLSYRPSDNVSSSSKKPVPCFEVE
Description: Assay B: In Vitro Vascular Smooth Muscle-Response for AII
The compounds of the invention were tested for antagonist activity in rabbit aortic rings. Male New Zealand white rabbits (2-2.5 kg) were sacrificed using an overdose of pentobarbital and exsanguinated via the carotid arteries. The thoracic aorta was removed, cleaned of adherent fat and connective tissue and then cut into 3-mm ring segments. The endothelium was removed from the rings by gently sliding a rolled-up piece of filter paper into the vessel lumen. The rings were then mounted in a water-jacketed tissue bath, maintained at 37° C., between moveable and fixed ends of a stainless steel wire with the moveable end attached to an FT03 Grass transducer coupled to a Model 7D Grass Polygraph for recording isometric force responses. The bath was filled with 20 ml of oxygenated (95% oxygen/5% carbon dioxide) Krebs solution of the following composition (mM): 130 NaCl, 15 NaHCO3, […], 1.2 NaH2 PO4, 1.2 MgSO4, 2.5 CaCl2, and 11.4 glucose. The preparations were equilibrated for one hour before approximately one gram of passive tension was placed on the rings. Angiotensin II concentration-response curves were then recorded (3×10^-10 to 1×10^-5 M). Each concentration of AII was allowed to elicit its maximal contraction, and then AII was washed out repeatedly for 30 minutes before rechallenging with a higher concentration of AII. Aorta rings were exposed to the test antagonist at 10^-5 M for 5 minutes before challenging with AII. Adjacent segments of the same aorta ring were used for all concentration-response curves in the presence or absence of the test antagonist. The effectiveness of the test compound was expressed in terms of pA2 values and were calculated according to H. O. Schild [Br. J. Pharmacol. Chemother., 2, 189-206 (1947)]. The pA2 value is the concentration of the antagonist which increases the IC50 value for AII by a factor of two. Each test antagonist was evaluated in aorta rings from two rabbits.

[4] = tested on: angiotensin II; conditions: cited from earlier work
[5] = first of two values in the cell (rings from two rabbits)
[6] = second of two values in the cell (rings from two rabbits)

IC50 [2]	Kb [3, 5]	Kb [3, 6]	Compound	specific competitive angiotensin II antagonist activity [1]	residual agonist activity [4]
–	–	–	CCCCc1nc(Cl)c(CC(=O)O)n1Cc1ccccc1[N+](=O)[O-] [2-butyl-4-chloro-1-(2-nitrobenzyl)imidazole-5-acetic acid]	specific competitive angiotensin II antagonist activity	–
–	–	–	CCCCc1nc(Cl)c(CC(=O)O)n1Cc1ccccc1Cl [2-n-butyl-4-chloro-1-(2-chlorobenzyl)imidazole-5-acetic acid]	specific competitive angiotensin II antagonist activity	–
41 nM	16.2 nM	53.7 nM	CCCCc1ncc2n1C(c1ccc(-c3ccccc3-c3nnn[nH]3)cc1)CC=C2CC(=O)OC(C)(C)C (stereo not drawn) [Example 17, 1,1-Dimethylethyl 3-butyl-5,6-dihydro-5-[2'-(1H-tetrazol-5-yl)[1,1'-biphenyl]-4-yl]imidazo[1,5-a]pyridin-8-acetate]	–	–
66 nM	105 nM	741 nM	CCCCc1nc(CCCC)n2c1C(=NO)CCC2c1ccc(-c2ccccc2-c2nn[nH]n2)cc1 (stereo not drawn) [Example 21, 1,3-Dibutyl-5,6-dihydro-N-hydroxy-5-[2'-(1H-tetrazol-5-yl)[1.1'-biphenyl]-4-yl]imidazol[1,5-a]pyridin-8(7H)-imine]	–	–
–	–	–	CNCC(=O)N[C@@H](CCCN=C(N)N)C(=O)N[C@H](C(=O)N[C@@H](Cc1ccc(O)cc1)C(=O)N[C@H](C(=O)N[C@@H](Cc1cnc[nH]1)C(=O)N1CCC[C@H]1C(=O)N[C@@H](C)C(=O)O)C(C)C)C(C)C [Saralasin]	–	significant residual agonist activity
